Where two headings read alike, the source gives them in different places.
Target: T1, recombinant human Meningioma Expressed Antigen 5 (MGEA5), also referred to as O-GlcNAcase (OGA) (Homo sapiens, UniProt O60502)
T1 construct: Full length OGA enzyme was purchased at OriGene (cat # TP322411); purchased OriGene TP322411
T1 sequence (O60502 1-916): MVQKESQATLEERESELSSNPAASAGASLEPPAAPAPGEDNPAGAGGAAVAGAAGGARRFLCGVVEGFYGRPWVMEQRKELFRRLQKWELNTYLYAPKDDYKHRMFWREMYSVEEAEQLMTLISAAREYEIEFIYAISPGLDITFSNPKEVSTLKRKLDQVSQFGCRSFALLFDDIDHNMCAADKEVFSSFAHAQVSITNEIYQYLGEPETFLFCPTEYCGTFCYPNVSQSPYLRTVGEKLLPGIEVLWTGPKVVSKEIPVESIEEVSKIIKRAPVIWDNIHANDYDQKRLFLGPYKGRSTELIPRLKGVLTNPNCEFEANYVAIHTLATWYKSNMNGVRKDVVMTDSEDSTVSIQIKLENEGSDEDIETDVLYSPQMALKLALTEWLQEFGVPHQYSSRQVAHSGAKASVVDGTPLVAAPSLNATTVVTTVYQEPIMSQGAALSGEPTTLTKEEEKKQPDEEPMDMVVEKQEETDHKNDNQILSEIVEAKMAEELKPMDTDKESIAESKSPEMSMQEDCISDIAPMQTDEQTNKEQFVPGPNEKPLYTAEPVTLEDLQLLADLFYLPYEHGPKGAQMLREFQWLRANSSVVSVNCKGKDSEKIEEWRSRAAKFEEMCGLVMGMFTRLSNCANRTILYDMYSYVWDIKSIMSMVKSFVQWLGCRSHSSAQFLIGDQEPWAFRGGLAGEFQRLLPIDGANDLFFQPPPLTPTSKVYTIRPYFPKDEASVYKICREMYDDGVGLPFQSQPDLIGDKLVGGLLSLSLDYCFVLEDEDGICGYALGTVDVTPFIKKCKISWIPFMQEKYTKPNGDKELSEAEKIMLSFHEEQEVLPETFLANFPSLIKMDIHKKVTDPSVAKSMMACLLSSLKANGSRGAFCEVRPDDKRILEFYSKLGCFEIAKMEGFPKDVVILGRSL
Assay: OGA biochemical assay: inhibition of FM-GlcNAc hydrolysis, fluorescence (protocol A 10 nM OGA, 1 h; protocol B 2 nM OGA, 6 h)
Excerpt: The assay is based on the inhibition of the hydrolysis of fluorescein mono-B-D-N-Acetyl-Glucosamine (FM-GlcNAc) (Mariappa et al. 2015, Biochem J 470:255) by the recombinant human Meningioma Expressed Antigen 5 (MGEA5), also referred to as 0-GlcNAcase (OGA). The hydrolysis FM-GlcNAc (Marker Gene technologies, cat # M1485) results in the formation of β-D-N-glucosamineacetate and fluorescein. The fluorescence of the latter can be measured at excitation wavelength 485 nm and emission wavelength 538 nm. An increase in enzyme activity results in an increase in fluorescence signal. Full length OGA enzyme was purchased at OriGene (cat # TP322411). The enzyme was stored in 25 mM Tris.HCl, pH 7.3, 100 mM glycine, 10% glycerol at −20° C. Thiamet G and GlcNAcStatin were tested as reference compounds (Yuzwa et al. 2008 Nature Chemical Biology 4:483; Yuzwa et al. 2012 Nature Chemical Biology 8:393). The assay was performed in 200 mM Citrate/phosphate buffer supplemented with 0.005% Tween-20. 35.6 g Na2HPO4 2 H2O (Sigma, # C0759) were dissolved in 1 L water to obtain a 200 mM solution. 19.2 g citric acid (Merck, #1.06580) was dissolved in 1 L water to obtain a 100 mM solution. pH of the sodiumphosphate solution was adjusted with the citric acid solution to 7.2. The buffer to stop the reaction consists of a 500 mM Carbonate buffer, pH 11.0. 734 mg FM-GlcNAc were dissolved in 5.48 mL DMSO to obtain a 250 mM solution and was stored at −20° C. OGA was used at a 10 nM (protocol A) or 2 nM (protocol B) concentration and FM-GlcNAc at a 100 uM final concentration. Dilutions were prepared in assay buffer.
50 nl of a compound dissolved in DMSO was dispensed on Black Proxiplate™ 384 Plus Assay plates (Perkin Elmer, #6008269) and 3 μl fl-OGA enzyme mix added subsequently. Plates were pre-incubated for 60 min at room temperature and then 2 μl FM-GlcNAc substrate mix added. […] Plates were briefly centrifuged for 1 min at 1000 rpm and incubate at room temperature for 1 h (10 nM OGA, protocol A) or 6 h (2 nM OGA, protocol B). To stop the reaction 5 μl STOP buffer were added and plates centrifuge again 1 min at 1000 rpm. Fluorescence was quantified in the Thermo Scientific Fluoroskan Ascent or the PerkinElmer EnVision with excitation wavelength 485 nm and emission wavelength 538 nm.
For analysis a best-fit curve is fitted by a minimum sum of squares method. From this an IC50 value and Hill coefficient was obtained. High control (no inhibitor) and low control (saturating concentrations of standard inhibitor) were used to define the minimum and maximum values.

[1] = Enzymatic protocol B (2 nM OGA, 6 h), read-out: Enzymatic Emax (%)
[2] = Enzymatic protocol B (2 nM OGA, 6 h), read-out: Enzymatic hOGA, pIC50 (converted)
[3] = Enzymatic protocol B (2 nM OGA, 6 h)
[4] = Enzymatic protocol A (10 nM OGA, 1 h), read-out: Enzymatic Emax (%)
[5] = Enzymatic protocol A (10 nM OGA, 1 h), read-out: Enzymatic hOGA, pIC50 (converted)
[6] = comparative table, protocol not given, read-out: Emax (OGA inhibitory activity, comparison with 1,4-disubstituted piperidine comparator)
[7] = comparative table, protocol not given, read-out: pIC50 (OGA inhibitory activity, comparison with 1,4-disubstituted piperidine comparator) (converted)

| Emax [1] [%] | IC50 [2] [nM] | Enzymatic Emax (%) [3] [%] | SMILES | other results |
| --- | --- | --- | --- | --- |
| 69.1 | 4070 |  | Cn1c(CN2CCCC(c3cc4ncccc4n3C)C2)cc2ccccc21 (centres unmarked) [Compound 54] |  |
|  | 676 | 96.3 | CC(=O)Nc1ncc(CN2CCCC(c3cc4cnccc4[nH]3)C2)s1 (single isomer, unassigned) [Compound 14] |  |
| 23.9 | > 10000 |  | Cn1c(C2CCCN(Cc3ccc4cccnc4c3)C2)cc2ncccc21 (centres unmarked) [Compound 63] |  |
| 90.1 | 1020 |  | CC(=O)N(C)c1ncc(CN2CCCC(c3cc4ncccc4[nH]3)C2)s1 (centres unmarked) [Compound 10] |  |
| 56.7 | 7760 |  | Cn1c(C2CCCN(Cc3ccc4ccccc4n3)C2)cc2ncccc21 (centres unmarked) [Compound 51] |  |
|  | 27.5 | 100 | CC(c1ccc2c(c1)OCO2)N1CCCC(c2cc3ncccc3n2C)C1 (single isomer, unassigned) [Compound 45] |  |
| 98.9 | 22.9 |  | CC(=O)Nc1ncc(CN2CCCC(c3cc4cnccc4[nH]3)C2)s1 (single isomer, unassigned) [Compound 13] |  |
| 99 | 83.2 |  | CC(c1ccc2c(c1)OCO2)N1CCCC(c2cc3ncccc3n2C)C1 (racemic) [Compound 44] |  |
|  | 1550 | 85.8 | CC(c1ccc2c(c1)OCO2)N1CCCC(c2cc3ncccc3n2C)C1 (single isomer, unassigned) [Compound 47] |  |
|  | 955 | 96.0 | CC(c1ccc2c(c1)OCCO2)N1CCCC(c2cc3ncccc3[nH]2)C1 (single isomer, unassigned) [Compound 37] |  |
| 72.2 | 3980 |  | Cn1c(C2CCCN(Cc3ccc4nsnc4c3)C2)cc2ncccc21 (centres unmarked) [Compound 52] |  |

Further lines, the compound ahead of its results:

| SMILES | Emax [1] [%] | IC50 [2] [nM] | Enzymatic Emax (%) [3] [%] | other results |
| --- | --- | --- | --- | --- |
| CC(c1ccc2c(c1)OCCO2)N1CCCC(c2cc3ncccc3[nH]2)C1 (single isomer, unassigned) [Compound 34] | 93.8 | 708 |  |  |
| Cn1c(C2CCCN(Cc3nc4ccccc4n3C)C2)cc2ncccc21 (centres unmarked) [Compound 56] | 98 | 832 |  |  |
| Cn1c(C2CCCN(Cc3ccc4scnc4c3)C2)cc2ncccc21 (centres unmarked) [Compound 53] | 97.2 | 832 |  |  |
| CC(=O)Nc1ncc(CN2CCCC(Cn3ccc4ncccc43)C2)s1 (centres unmarked) [Compound 64] | 100 | 7.76 |  |  |
| Cn1c(C2CCCN(Cc3cnc4c(c3)OCCO4)C2)cc2ncccc21 (centres unmarked) [Compound 55] | 81.5 | 2190 |  |  |
| CC(c1ccc2c(c1)OCO2)N1CCCC(c2cc3ncccc3n2C)C1 (single isomer, unassigned) [Compound 46] |  | > 10000 | 24.2 |  |
| CC(c1ccc2c(c1)OCCO2)N1CCCC(c2cc3ncccc3[nH]2)C1 (single isomer, unassigned) [Compound 36] |  | 11 | 101.3 |  |
| CC(=O)Nc1ncc(CN2CCCC(c3cc4ncccc4[nH]3)C2)s1 (centres unmarked) [Compound 5] |  |  |  | Emax [4]: 99.7%; IC50 [5]: 25.7 nM; Emax [6]: 99.7%; IC50 [7]: 25.7 nM; OGA inhibitory activity compared with comparator (greater than the corresponding 1,4-disubstituted piperidine compound (comparator)): ~1 order of magnitude |
| CC(c1ccc2c(c1)OCO2)N1CCCC(c2cc3ncccc3n2C)C1 (single isomer, unassigned) [Compound 48] |  | > 10000 | 31.7 |  |
| Cn1c(C2CCCN(Cc3ccc4nccnc4c3)C2)cc2ncccc21 (single isomer, unassigned) [Compound 42] |  | 776 | 93.2 |  |
| c1cnc2cc(C3CCCN(Cc4ccc5c(c4)OCO5)C3)[nH]c2c1 (centres unmarked) [Compound 38] |  |  |  | Emax [4]: 99.9%; IC50 [5]: 1740 nM |
| CC(c1ccc2c(c1)OCO2)N1CCCC(c2cc3ncccc3[nH]2)C1 (single isomer, unassigned) [Compound 29] |  | 3720 | 73.5 |  |
| CC(c1ccc2c(c1)OCCO2)N1CCCC(c2cc3ncccc3[nH]2)C1 (single isomer, unassigned) [Compound 35] |  | 2450 | 87.7 |  |
| Cn1c(C2CCCN(Cc3cc4c(cn3)OCCO4)C2)cc2ncccc21 (centres unmarked) [Compound 50] | 52.3 | 8710 |  |  |
| CC(=O)Nc1ncc(S(=O)(=O)N2CCCC(c3nc4ncccc4[nH]3)C2)s1 (centres unmarked) [Compound 1] |  |  |  | Emax [4]: 75.9%; IC50 [5]: 1860 nM |
| CC(c1ccc2c(c1)OCO2)N1CCCC(c2cc3ncccc3[nH]2)C1 (single isomer, unassigned) [Compound 30] |  | 4070 | 75.1 |  |
| CC(=O)Nc1ncc(CN2CCNC(c3cc4ncccc4[nH]3)C2)s1 (centres unmarked) [Compound 57] | 60.8 | 6610 |  |  |
| CC(=O)Nc1ncc(CN2CCOC(c3cc4ncccc4[nH]3)C2)s1 (centres unmarked) [Compound 27] | 77.3 | 3160 |  |  |
| CC(c1ccc2c(c1)OCO2)N1CCCC(c2cc3ncccc3[nH]2)C1 (single isomer, unassigned) [Compound 32] |  | 1780 | 89.4 |  |
| Cn1c(C2CCCN(Cc3ccc4nccnc4c3)C2)cc2ncccc21 (single isomer, unassigned) [Compound 43] |  | > 10000 | 46.5 |  |
| CC(=O)Nc1ncc(S(=O)(=O)N2CCCC(c3cc4ncccc4[nH]3)C2)s1 (single isomer, unassigned) [Compound 3] |  |  |  | Enzymatic Emax (%) (Enzymatic protocol A (10 nM OGA, 1 h)): 99%; IC50 [5]: 562 nM |
| Cn1c(C2CCCN(Cc3ccc4nccnc4c3)C2)cc2ncccc21 (centres unmarked) [Compound 41] | 89.8 | 1260 |  |  |
| CC(=O)Nc1ncc(CN2CCC(c3cc4ncccc4[nH]3)CC2)s1 [comparator, reference compound] |  |  |  | Emax [6]: 103%; IC50 [7]: 224 nM |

Reference: patent US20190359609A1, “BICYCLIC OGA INHIBITOR COMPOUNDS” (Janssen Pharmaceutica NV, priority 2016, published 2019)
